Laboratory results published in ChEMBL document CHEMBL3885881, “DrugMatrix”.

Species: Rattus norvegicus
Assay: DrugMatrix - Regimen: Daily Repeat
Format: toxicity, organism-based, Sprague-Dawley
Design: regimen Daily Repeat, gender Male, age 6-8 weeks
Conditions: in vivo, po, route oral GAVAGE, vehicle .5 % CMC; for ABSOLUTE BASOPHIL / ABSOLUTE EOSINOPHIL / ABSOLUTE LYMPHOCYTE / ABSOLUTE MONOCYTE / ABSOLUTE SEGMENTED NEUTROPHIL / BASOPHIL / EOSINOPHIL / ERYTHROCYTE COUNT / HEMATOCRIT / HEMOGLOBIN / LEUKOCYTE COUNT / LYMPHOCYTE / MEAN CORPUSCULAR HEMOGLOBIN / MEAN CORPUSCULAR HEMOGLOBIN CONCENTRATION / MEAN CORPUSCULAR VOLUME / MONOCYTE / NEUTROPHIL / NUCLEATED RED BLOOD CELLS / PLATELET COUNT: tissue Blood; for ALANINE AMINOTRANSFERASE / ALBUMIN / ALKALINE PHOSPHATASE / ASPARTATE AMINOTRANSFERASE / BLOOD UREA NITROGEN / CARBON DIOXIDE / CHLORIDE / CHOLESTEROL / CREATINE PHOSPHOKINASE / CREATININE / GLUCOSE / LACTATE DEHYDROGENASE / LIPASE / PHOSPHORUS / POTASSIUM / SODIUM / TOTAL BILIRUBIN / TOTAL PROTEIN / URIC ACID: tissue Plasma
[1] = 19 mg/kg, 120 h, dose level High, time 5 day
[2] = […], 72 h, dose 6.6 mg/Kg, dose level Low, time 3 day
[3] = […], 120 h, dose 6.6 mg/Kg, dose level Low, time 5 day

Structure (SMILES): NCC(CC(=O)O)c1ccc(Cl)cc1 (centres undefined) [BACLOFEN]
- ABSOLUTE BASOPHIL [1]: 0 CELLS/uL
- ABSOLUTE EOSINOPHIL [1]: 0 CELLS/uL
- ABSOLUTE LYMPHOCYTE [1]: 14854 CELLS/uL
- ABSOLUTE MONOCYTE [1]: 102.67 CELLS/uL
- ABSOLUTE SEGMENTED NEUTROPHIL [1]: 1043.33 CELLS/uL
- BASOPHIL [1]: 0%
- EOSINOPHIL [1]: 0%
- ERYTHROCYTE COUNT [1]: 5.41 x10E6/uL
- HEMATOCRIT [1]: 33.6%
- HEMOGLOBIN [1]: 13.33 G/DL
- LEUKOCYTE COUNT [1]: 16 x10E3/uL
- LYMPHOCYTE [1]: 93%
- MEAN CORPUSCULAR HEMOGLOBIN [1]: 24.7 pg
- MEAN CORPUSCULAR HEMOGLOBIN CONCENTRATION [1]: 39.73 G/DL
- MEAN CORPUSCULAR VOLUME [1]: 62.17 fL
- MONOCYTE [1]: 0.67%
- NEUTROPHIL [1]: 6.33%
- NUCLEATED RED BLOOD CELLS [1]: 0 /100WBC
- PLATELET COUNT [1]: 1022.33 x10E3/uL
- ALANINE AMINOTRANSFERASE [1]: 54.67 u/L
- ALBUMIN [1]: 4.1 G/DL
- ALKALINE PHOSPHATASE [1]: 431.33 u/L
- ASPARTATE AMINOTRANSFERASE [1]: 87.67 u/L
- BLOOD UREA NITROGEN [1]: 19.67 mg/dL
- CARBON DIOXIDE [1]: 26.33 mmol/L
- CHLORIDE [1]: 103.67 MEQ/L
- CHOLESTEROL [1]: 59.33 mg/dL
- CREATINE PHOSPHOKINASE [1]: 272.67 u/L
- CREATININE [1]: 0.23 mg/dL
- GLUCOSE [1]: 160 mg/dL
- LACTATE DEHYDROGENASE [1]: 391 u/L
- LIPASE [1]: 9 u/L
- PHOSPHORUS [1]: 11.13 mg/dL
- POTASSIUM [1]: 6.54 MEQ/L
- SODIUM [1]: 147.27 MEQ/L
- TOTAL BILIRUBIN [1]: 0.3 mg/dL
- TOTAL PROTEIN [1]: 5.87 G/DL
- URIC ACID [1]: 1.4 mg/dL
- ABSOLUTE BASOPHIL [2]: 0 CELLS/uL
- ABSOLUTE EOSINOPHIL [2]: 196 CELLS/uL
- ABSOLUTE LYMPHOCYTE [2]: 14434 CELLS/uL
- ABSOLUTE MONOCYTE [2]: 264.67 CELLS/uL
- ABSOLUTE SEGMENTED NEUTROPHIL [2]: 1038.67 CELLS/uL
- BASOPHIL [2]: 0%
- EOSINOPHIL [2]: 1%
- ERYTHROCYTE COUNT [2]: 5.8 x10E6/uL
- HEMATOCRIT [2]: 36.17%
- HEMOGLOBIN [2]: 13.87 G/DL
- LEUKOCYTE COUNT [2]: 15.93 x10E3/uL
- LYMPHOCYTE [2]: 90.67%
- MEAN CORPUSCULAR HEMOGLOBIN [2]: 24.03 pg
- MEAN CORPUSCULAR HEMOGLOBIN CONCENTRATION [2]: 38.37 G/DL
- MEAN CORPUSCULAR VOLUME [2]: 62.57 fL
- MONOCYTE [2]: 1.67%
- NEUTROPHIL [2]: 6.67%
- NUCLEATED RED BLOOD CELLS [2]: 0 /100WBC
- PLATELET COUNT [2]: 1144 x10E3/uL
- ALANINE AMINOTRANSFERASE [2]: 51.67 u/L
- ALBUMIN [2]: 4.27 G/DL
- ALKALINE PHOSPHATASE [2]: 456 u/L
- ASPARTATE AMINOTRANSFERASE [2]: 81.33 u/L
- BLOOD UREA NITROGEN [2]: 18.33 mg/dL
- CARBON DIOXIDE [2]: 27 mmol/L
- CHLORIDE [2]: 100 MEQ/L
- CHOLESTEROL [2]: 67 mg/dL
- CREATINE PHOSPHOKINASE [2]: 351.67 u/L
- CREATININE [2]: 0.23 mg/dL
- GLUCOSE [2]: 153.33 mg/dL
- LACTATE DEHYDROGENASE [2]: 367.67 u/L
- LIPASE [2]: 10.67 u/L
- PHOSPHORUS [2]: 12.53 mg/dL
- POTASSIUM [2]: 7.1 MEQ/L
- SODIUM [2]: 142.1 MEQ/L
- TOTAL BILIRUBIN [2]: 0.2 mg/dL
- TOTAL PROTEIN [2]: 5.93 G/DL
- URIC ACID [2]: 1.63 mg/dL
- ABSOLUTE BASOPHIL [3]: 0 CELLS/uL
- ABSOLUTE EOSINOPHIL [3]: 160.33 CELLS/uL
- ABSOLUTE LYMPHOCYTE [3]: 14603.33 CELLS/uL
- ABSOLUTE MONOCYTE [3]: 300.67 CELLS/uL
- ABSOLUTE SEGMENTED NEUTROPHIL [3]: 1335.67 CELLS/uL
- BASOPHIL [3]: 0%
- EOSINOPHIL [3]: 1%
- ERYTHROCYTE COUNT [3]: 5.47 x10E6/uL
- HEMATOCRIT [3]: 35.43%
- HEMOGLOBIN [3]: 13.57 G/DL
- LEUKOCYTE COUNT [3]: 16.4 x10E3/uL
- LYMPHOCYTE [3]: 89%
- MEAN CORPUSCULAR HEMOGLOBIN [3]: 24.8 pg
- MEAN CORPUSCULAR HEMOGLOBIN CONCENTRATION [3]: 38.3 G/DL
- MEAN CORPUSCULAR VOLUME [3]: 64.8 fL
- MONOCYTE [3]: 1.67%
- NEUTROPHIL [3]: 8.33%
- NUCLEATED RED BLOOD CELLS [3]: 0 /100WBC
- PLATELET COUNT [3]: 1121.33 x10E3/uL
- ALANINE AMINOTRANSFERASE [3]: 51 u/L
- ALBUMIN [3]: 4.23 G/DL
- ALKALINE PHOSPHATASE [3]: 364.33 u/L
- ASPARTATE AMINOTRANSFERASE [3]: 94.33 u/L
- BLOOD UREA NITROGEN [3]: 19 mg/dL
- CARBON DIOXIDE [3]: 28.33 mmol/L
- CHLORIDE [3]: 100.67 MEQ/L
- CHOLESTEROL [3]: 71 mg/dL
- CREATINE PHOSPHOKINASE [3]: 448 u/L
- CREATININE [3]: 0.15 mg/dL
- GLUCOSE [3]: 140.33 mg/dL
- LACTATE DEHYDROGENASE [3]: 505 u/L
- LIPASE [3]: 10 u/L
- PHOSPHORUS [3]: 11.6 mg/dL
- POTASSIUM [3]: 6.27 MEQ/L
- SODIUM [3]: 143.57 MEQ/L
- TOTAL BILIRUBIN [3]: 0.23 mg/dL
- TOTAL PROTEIN [3]: 6.07 G/DL
- URIC ACID [3]: 1.37 mg/dL
